Patent publication US20160362408A1 (Bayer Pharma Aktiengesellschaft, priority 2013, published 2016)
Structures can show the parent of a compound that is named as a salt.

Target: T1, recombinant guanylate cyclase reporter cell line (Rattus norvegicus, UniProt P19686+P20595)
T1 construct: expressed in transfected cells
T1 sequence (P19686 1-690): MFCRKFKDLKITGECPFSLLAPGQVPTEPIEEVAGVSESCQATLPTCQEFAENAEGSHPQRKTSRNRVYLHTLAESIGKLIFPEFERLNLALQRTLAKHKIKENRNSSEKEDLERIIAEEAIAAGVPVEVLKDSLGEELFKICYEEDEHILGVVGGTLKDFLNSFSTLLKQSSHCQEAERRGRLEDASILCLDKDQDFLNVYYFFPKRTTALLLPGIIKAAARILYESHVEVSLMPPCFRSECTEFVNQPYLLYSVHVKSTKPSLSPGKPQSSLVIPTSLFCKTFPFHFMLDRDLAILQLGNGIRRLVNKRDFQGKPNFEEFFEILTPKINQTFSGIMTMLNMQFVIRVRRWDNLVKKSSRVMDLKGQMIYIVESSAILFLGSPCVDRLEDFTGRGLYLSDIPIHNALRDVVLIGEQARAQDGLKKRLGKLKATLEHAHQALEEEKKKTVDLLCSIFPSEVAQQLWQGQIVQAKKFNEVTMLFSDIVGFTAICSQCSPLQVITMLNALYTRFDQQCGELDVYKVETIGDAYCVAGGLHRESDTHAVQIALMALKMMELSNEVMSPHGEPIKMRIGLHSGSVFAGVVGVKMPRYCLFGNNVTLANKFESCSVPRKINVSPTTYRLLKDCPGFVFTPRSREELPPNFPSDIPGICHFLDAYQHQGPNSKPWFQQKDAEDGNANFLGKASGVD
T1 sequence (P20595 1-619): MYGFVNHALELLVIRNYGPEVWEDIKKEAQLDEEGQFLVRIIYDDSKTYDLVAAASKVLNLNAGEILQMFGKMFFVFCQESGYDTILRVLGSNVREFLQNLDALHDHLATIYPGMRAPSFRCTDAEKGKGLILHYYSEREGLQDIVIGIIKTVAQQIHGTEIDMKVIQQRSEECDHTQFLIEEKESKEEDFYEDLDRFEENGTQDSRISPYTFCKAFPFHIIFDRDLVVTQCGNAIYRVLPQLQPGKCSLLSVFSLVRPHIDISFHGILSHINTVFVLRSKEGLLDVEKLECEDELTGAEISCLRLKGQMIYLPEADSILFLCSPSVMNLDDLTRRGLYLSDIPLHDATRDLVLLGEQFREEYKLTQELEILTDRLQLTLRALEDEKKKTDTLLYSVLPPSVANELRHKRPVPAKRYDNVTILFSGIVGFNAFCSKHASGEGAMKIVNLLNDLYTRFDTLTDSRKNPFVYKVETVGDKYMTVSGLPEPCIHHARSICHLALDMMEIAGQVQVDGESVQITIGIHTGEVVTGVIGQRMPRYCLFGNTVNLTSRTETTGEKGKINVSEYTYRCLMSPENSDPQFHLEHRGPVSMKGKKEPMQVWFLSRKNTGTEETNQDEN
Assay: Effect on a recombinant guanylate cyclase reporter cell line
Format: cell-based
Details: MEC = minimum effective concentration; in some cases mean values for individual determinations
Method in brief: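 Compounds tested in a recombinant guanylate cyclase reporter cell line per a published method. Potency expressed as minimum effective concentration (MEC), sometimes as mean of individual determinations.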

| Compound | MEC [µM] |
| --- | --- |
| Cc1nc2c(OCc3c(F)cccc3F)cccn2c1C(=O)Nc1ccccc1CN [Example 111, N-[2-(Aminomethyl)phenyl]-8-[(2,6-difluorobenzyl)oxy]-2-methylimidazo[1,2-a]pyridine-3-carboxamide] | 1.0 |
| Cc1cc(OCc2c(F)cccc2F)c2nc(C)c(C(=O)Nc3ccccc3CN)n2c1 [Example 112, N-[2-(Aminomethyl)phenyl]-8-[(2,6-difluorobenzyl)oxy]-2,6-dimethylimidazo[1,2-a]pyridine-3-carboxamide] | 0.3 |
| Cc1cc(OCc2c(F)cccc2F)c2nc(C)c(C(=O)Nc3ccc(F)cc3CN)n2c1 [Example 113, N-[2-(Aminomethyl)-4-fluorophenyl]-8-[(2,6-difluorobenzyl)oxy]-2,6-dimethylimidazo[1,2-a]pyridine-3-carboxamide] | 0.3 |
| Cc1nc2c(OCc3c(F)cccc3F)cccn2c1C(=O)Nc1n[nH]c2ccc(C(F)(F)F)cc12 [Example 114, 8-[(2,6-Difluorobenzyl)oxy]-2-methyl-N-[5-(trifluoromethyl)-1H-indazol-3-yl]imidazo[1,2-a]pyridine-3-carboxamide] | 0.3 |
| Cc1nc2c(OCc3c(F)cccc3F)cccn2c1C(=O)Nc1n[nH]c2ccc(F)cc12 [Example 115, 8-[(2,6-Difluorobenzyl)oxy]-N-(5-fluoro-1H-indazol-3-yl)-2-methylimidazo[1,2-a]pyridine-3-carboxamide] | 1.0 |
| Cc1nc2c(OCc3c(F)cccc3F)cccn2c1C(=O)Nc1c(C(F)(F)F)nn(CCO)c1C [Example 116, 8-[(2,6-Difluorobenzyl)oxy]-N-[1-(2-hydroxyethyl)-5-methyl-3-(trifluoromethyl)-1H-pyrazol-4-yl]-2-methylimidazo[1,2-a]pyridine-3-carboxamide] | 0.5 |
| Cc1nc2c(OCc3c(F)cccc3F)cc(Cl)cn2c1C(=O)Nc1c(C(F)(F)F)nn(CCO)c1C [Example 117, 6-chloro-8-[(2,6-difluorobenzyl)oxy]-N-[1-(2-hydroxyethyl)-5-methyl-3-(trifluoromethyl)-1H-pyrazol-4-yl]-2-methylimidazo[1,2-a]pyridine-3-carboxamide] | 0.1 |
| Cc1nc2c(OCc3c(F)cccc3F)cccn2c1C(=O)Nc1cnn(C)c1 [Example 119, 8-[(2,6-difluorobenzyl)oxy]-2-methyl-N-(1-methyl-1H-pyrazol-4-yl)imidazo[1,2-a]pyridine-3-carboxamide] | 1.0 |
| CCn1ccc(NC(=O)c2c(C)nc3c(OCc4c(F)cccc4F)cccn23)n1 [Example 121, 8-[(2,6-difluorobenzyl)oxy]-N-(1-ethyl-1H-pyrazol-3-yl)-2-methylimidazo[1,2-a] pyridine-3-carboxamide] | 1.0 |
| Cc1nc2c(OCc3c(F)cccc3F)cccn2c1C(=O)Nc1cc(C)n(C)n1 [Example 122, 8-[(2,6-difluorobenzyl)oxy]-N-(1,5-dimethyl-1H-pyrazol-3-yl)-2-methylimidazo[1,2-a] pyridine-3-carboxamide] | 3.0 |
| Cc1nc2c(OCc3c(F)cccc3F)cccn2c1C(=O)Nc1ccncc1C(F)(F)F [Example 123, 8-[(2,6-difluorobenzyl)oxy]-2-methyl-N-[3-(trifluoromethyl)pyridin-4-yl)imidazo[1,2-a]pyridine-3-carboxamide trifluoroacetate] | 1.0 |
| Cc1nc2c(OCC3CCCCC3)cccn2c1C(=O)Nc1cnn(CCO)c1 [Example 124, 8-(cyclohexylmethoxy)-N-[1-(2-hydroxyethyl)-1H-pyrazol-4-yl]-2-methylimidazo[1,2-a]pyridine-3-carboxamide] | 1.0 |
| Cc1ccnc(NC(=O)c2c(C)nc3c(OCc4c(F)cccc4F)cccn23)n1 [Example 126, 8-[(2,6-Difluorobenzyl)oxy]-2-methyl-N-(4-methylpyrimidin-2-yl)imidazo[1,2-a]pyridine-3-carboxamide] | 1.0 |
| Cc1nc2c(OCc3c(F)cccc3F)cccn2c1C(=O)Nc1cnn(CCN2CCC(F)(F)CC2)c1 [Example 127, 8-[(2,6-Difluorobenzyl)oxy]-N-{1-[2-(4,4-difluoropiperidin-1-yl)ethyl]-1H-pyrazol-4-yl}-2-methylimidazo[1,2-a]pyridine-3-carboxamide] | 1.0 |
| Cc1nc2c(OCc3c(F)cccc3F)cccn2c1C(=O)Nc1cnn(CCN2CCCC2)c1 [Example 128, 8-[(2,6-difluorobenzyl)oxy]-2-methyl-N-{1-[2-(pyrrolidin-1-yl)ethyl]-1H-pyrazol-4-yl}imidazo [1,2-a]pyridine-3-carboxamide] | 3.0 |
| Cc1nc2c(OCc3c(F)cccc3F)cccn2c1C(=O)Nc1cnn(CCN2CCS(=O)(=O)CC2)c1 [Example 129, 8-[(2,6-difluorobenzyl)oxy]-N-{1-[2-(1,1-dioxidothiomorpholin-4-yl)ethyl]-1H-pyrazol-4-yl}-2-methylimidazo[1,2-a] pyridine-3-carboxamide] | 10 |
| Cc1nc2c(OCc3c(F)cccc3F)cccn2c1C(=O)Nc1cnn(CCN2CCC(O)CC2)c1 [Example 130, 8-[(2,6-difluorobenzyl)oxy]-N-{1-[2-(4-hydroxypiperidin-1-yl)ethyl]-1H-pyrazol-4-yl}-2-methylimidazol[1,2-a] pyridine-3-carboxamide] | 10 |
| Cc1nc2c(OCc3c(F)cccc3F)cccn2c1C(=O)Nc1cnn(CCN2CCOCC2)c1 [Example 132, 8-[(2,6-difluorobenzyl)oxy]-2-methyl-N-{1-[2-(morpholin-4-yl)ethyl]-1H-pyrazol-4-yl} imidazo[1,2-a]pyridine-3-carboxamide] | 1.0 |
| Cc1nc2c(OCc3c(F)cccc3F)cccn2c1C(=O)Nc1cnn(CCN2CCN(C)CC2)c1 [Example 133, 8-[(2,6-difluorobenzyl)oxy]-2-methyl-N-{1-[2-(4-methylpiperazin-1-yl)ethyl]-1H-pyrazol-4-yl)imidazo [1,2-a]pyridine-3-carboxamide] | 10 |
| Cc1nc2c(OCc3c(F)cccc3F)cccn2c1C(=O)Nc1cnn(CCN(C)C)c1 [Example 134, 8-[(2,6-difluorobenzyl)oxy]-N-{1-[2-(dimethylamino)ethyl]-1H-pyrazol-4-yl}-2-methylimidazol[1,2-a] pyridine-3-carboxamide] | 3.0 |
| Cc1nc2c(OCc3c(F)cccc3F)cccn2c1C(=O)Nc1cnn(CCS(C)(=O)=O)c1 [Example 135, 8-[(2,6-Difluorobenzyl)oxy]-2-methyl-N-{1-[2-(methylsulphonyl)ethyl]-1H-pyrazol-4-yl}imidazo[1,2-a]pyridine-3-carboxamide] | 3.0 |
| Cc1nc2c(OCc3c(F)cccc3F)cccn2c1C(=O)Nc1cnn(CCOC(N)=O)c1 [Example 138, 2-{4-[({8-[(2,6-Difluorobenzyl)oxy]-2-methylimidazo[1,2-a]pyridin-3-yl}carbonyl)amino]-1H-pyrazol-1-yl}ethyl carbamate] | 10 |
| Cc1nc2c(OCc3c(F)cccc3F)cccn2c1C(=O)Nc1cnn(CCOS(N)(=O)=O)c1 [Example 139, 2-{4-[({8-[(2,6-Difluorobenzyl)oxy]-2-methylimidazo[1,2-a]pyridin-3-yl}carbonyl)amino]-1H-pyrazol-1-yl}ethyl sulphamate trifluoroacetate] | 3.0 |
| Cc1nc2c(OCc3c(F)cccc3F)cccn2c1C(=O)Nc1cnn(CCF)c1 [Example 140, 8-[(2,6-Difluorobenzyl)oxy]-N-[1-(2-fluoroethyl)-1H-pyrazol-4-yl]-2-methylimidazo[1,2-a]pyridine-3-carboxamide] | 1.0 |
| Cc1nc2c(OCc3c(F)cccc3F)cc(Cl)cn2c1C(=O)Nc1cnn(CCF)c1 [Example 141, 6-chloro-8-[(2,6-difluorobenzyl)oxy]-N-[1-(2-fluoroethyl)-1H-pyrazol-4-yl]-2-methylimidazo[1,2-a]pyridine-3-carboxamide] | 1.0 |
| O=C(Nc1cnn(CCO)c1)c1c(C2CC2)nc2c(OCc3c(F)cccc3F)cccn12 [Example 142, 2-Cyclopropyl-8-[(2,6-difluorobenzyl)oxy]-N-[1-(2-hydroxyethyl)-1H-pyrazol-4-yl]imidazo[1,2-a]pyridine-3-carboxamide] | 10 |
